The results in this text go back to patent EP0372582A2, “6-Aminoalkyl carbapenems” (Bristol-Myers Squibb Company, priority 1988, dated 1990).

Data set [1] in a line: Chemical stability in aqueous solution (half-life). Format: physicochemical. As for the experimental part:
Chemical stability in aqueous solution at pH 7.4 and pH 2.0 is reported as half-life (t1/2). These values are determined by interpolation from a graph of concentration of test substance remaining in solution after storage under selected conditions for various periods of time.

For another data set, the system named is E. coli. In words: Protective dose (PD50) in infected animals. The format is in vivo, mice. Also on record: unit not given here. An excerpt:
The PD₅₀ values are protective doses, or the dose of test compound which secures survival of 50% of the animals of a test group, usually mice, during a designated period of time after being infected with an inoculum of infectious organism which will result in death of all inoculated untreated animals during that test period.

Data set [2] is described as follows: Blood concentration parameters after administration to mice. Format: in vivo. The following applies: for Cmax / AUC / half-life: mouse, mice; for half-life: blood half-life. An excerpt: […] "Cmax" is the maximum concentration achieved, "t1/2" is the half-life or time for half of the absorbed material to disappear from the blood stream.
For the next data set, the system named is Staph. serum. Put plainly: M.I.C., tube dilution method in Nutrient Broth. Format: cell-based. As for the experimental part:
The following procedures illustrate the application of the process of this invention to the preparation of a variety of compounds of Formula V. In many instances, data illustrating the biological activity of the substances as antibiotics are presented. […] It is determined by interpolation from a graph of concentration versus number of cells following exposure of the organism to the test compound under growth conditions. Another parameter such as optical density which is proportional to the cell count may be used. In some instances MIC₉₀ values are also given. The latter refers to 90% growth inhibition.

[3] abbreviates: 37°C, pH 2.0 citric acid buffer, by hplc, read-out: t1/2, pH 2.
Setting [4] is: 37°C, pH 7.4 phosphate buffer, by uv, read-out: t1/2, pH 7.4 (converted).
Setting [5] is: citric acid buffer, pH 2, 37°C, pH 2.0 citric acid buffer, by hplc, read-out: t1/2, pH 2.
Where [6] appears, read: phosphate buffer, pH 7.4, 37°C, pH 7.4 phosphate buffer, by uv, read-out: t1/2, pH 7.4 (converted).
The mark [7] stands for this setting: blood, PO, 50 mg/kg, read-out: Cmax, PO/50.

Structures are written as SMILES. Like-named read-outs stand apart in the source and are kept apart here.

Turning to `C[C@H](N)[C@H]1C(=O)N2C(C(=O)O)=C(SCCC#N)[C@H](C)[C@H]12` [Procedure 35, (5S,6R) 6-(1′S-Aminoethyl)-3-(2-cyanoethylthio)-4R-methyl-7-oxo-1-azabicyclo[3.2.0]hept-2-ene-2-carboxylic Acid], the half-life is 0.583 h in data set [1] (setting [3]) and 1.5 h in data set [1] (setting [4]).

As to `CSC1=C(C(=O)O)N2C(=O)[C@H]([C@@H](C)NC(=O)CNC(=O)[C@H](C)N)[C@H]2[C@H]1C` [Procedure 38, (5S,6R) 6-(1′R-(L-alanylglycyl)aminoethyl)-4R-methyl-3-methylthio-7-oxo-1-azabicyclo[3.2.0]hept-2-ene--2-carboxylic Acid], the half-life is below 0.0833 h in data set [1] (setting [5]) and 29 h in data set [1] (setting [6]). In addition, the “PD50, E. coli” value was determined as 12.50 in the data set on E. coli (IM) and 25.00 in the data set on E. coli (PO). In addition, the Cmax in data set [2] (setting [7]) is 2000 ng/mL.

`CCSC1=C(C(=O)O)N2C(=O)[C@H]([C@H](C)N)[C@H]2[C@H]1C` [Procedure 60, (5S,6R) 6-(1′S-aminoethyl)-3-ethylthio-4R-methyl-7-oxo-1-azabicyclo[3.2.0]hept-2-ene-2-carboxylic acid]: the “M.I.C. Staph. serum” value in the data set on Staph. serum is on record as 8.000.

Turning to `CCSC1=C(C(=O)O)N2C(=O)[C@H]([C@@H](C)N)[C@H]2[C@H]1C` [Procedure 7, (5S,6R) 6-(1′R-Aminoethyl)-3-ethylthio-4R-methyl-7-oxo-1-azabicyclo[3.2.0]hept-2-ene-2-carboxylic Acid], the half-life is 2.8 h in data set [1] (setting [5]) and 4.3 h in data set [1] (setting [6]).

For the molecule `CSC1=C(C(=O)[O-])N2C(=O)[C@H]([C@H](C)[N+](C)(C)C)[C@H]2[C@H]1C` [Procedure 59, (5S,6R) 6-(1′S-N-Trimethylammonium-ethyl)-4R-methyl-3-methylthio-7-oxo-1-azabicyclo[3.2.0]hept-2-ene-2-carboxylate], in the data set on Staph. serum, the “M.I.C. Staph. serum” value amounted to 8.000.

Take `C[C@@H](N)C1C(=O)N2C(C(=O)O)=C(SCc3ccccc3)[C@H](C)[C@H]12` (stereo in doubt) [Procedure 12, (5S,6S) 6-(1′R-Aminoethyl)-3-benzylthio-4R-methyl-7-oxo-1-azabicyclo[3.2.0]hept-2-ene-2-carboxylic Acid]: the half-life in data set [1] (setting [3]) is 2.4 h; in data set [1] (setting [4]), 4.1 h; in data set [2] (in vivo, PO, 50 mg/kg) it was 0.217 h. The molecule also gave an area under the curve (AUC) in data set [2] (in vivo, PO, 50 mg/kg) of 11000 ng·h/mL. Moreover, in data set [2] (in vivo, PO, 50 mg/kg, read-out: Cmax, PO/50), the Cmax came out at 33000 ng/mL.

As for `CSC1=C(C(=O)O)N2C(=O)[C@H]([C@@H](C)N)[C@H]2[C@H]1C` [Procedure 9, (5S,6R) 6-(1′R-Aminoethyl)-4R-methyl-3-methylthio-7-oxo-1-azabicyclo[3.2.0]hept-2-ene-2-carboxylic Acid], the half-life was 3.53 h in data set [1] (setting [5]); 39 h in data set [1] (phosphate buffer, pH 7.4, 22°C, pH 7.4 phosphate buffer, read-out: half-life (converted)); 6.8 h in data set [1] (setting [6]); 0.3 h in data set [2] (PO, 50 mg/kg). Moreover, the entries for the “PD50, E. coli” value in the data set on E. coli (IM) and in the data set with E. coli (PO) were 25.00 and 12.50, respectively. The same molecule displayed an AUC in data set [2] (blood, PO, 50 mg/kg) of 5000 ng·h/mL. For the same molecule, in data set [2] (setting [7]), the Cmax was found to be 9000 ng/mL.

Regarding `CC[C@H]1C(SC)=C(C(=O)O)N2C(=O)[C@H]([C@H](C)N)[C@@H]12` [Procedure 49, (5S,6R) 6-(1′S-Aminoethyl)-4R-ethyl-3-methylthio-7-oxo-1-azabicyclo[3.2.0]hept-2-ene-2-carboxylic Acid], the “M.I.C. Staph. serum” value in the data set with Staph. serum stood at 63.000.

Consider `CSC1=C(C(=O)O)N2C(=O)[C@H]([C@H](C)O)[C@H]2[C@H]1C` [Procedure 4, (5S,6S) Potassium 6-(1′S-hydroxyethyl)-4R-methyl-3-methylthio-7-oxo-1-azabicyclo[3.2.0]hept-2-ene-2-carboxylate], for which the half-life in data set [1] (setting [6]) is 160 h.

`CSC1=C(C(=O)O)N2C(=O)[C@H]([C@H](C)N)[C@H]2[C@H]1C` [Procedure 57, (5S,6R) 6-(1S-Aminoethyl)-4R-methyl-3-methylthio-7-oxo-1-1-azabicyclo[3.2.0]hept-2-ene-2-carboxylate]: the “M.I.C. Staph. serum” value with Staph. serum worked out at 16.000.

For `C[C@H](N)[C@H]1C(=O)N2C(C(=O)O)=C(SCc3cccnc3)[C@H](C)[C@H]12` [Procedure 58], in the data set on Staph. serum, the “M.I.C. Staph. serum” value is on record as 4.000.

Regarding `C[C@@H](N)[C@H]1C(=O)N2C(C(=O)O)=C(SCCC#N)[C@H](C)[C@H]12` [Procedure 26, (5S,6R)-6-(1′R-Aminoethyl)-3-(2-cyanoethylthio)-4R-methyl-7-oxo-1-azabicyclo[3.2.0]hept-2-ene-2-carboxylic Acid], the values for the half-life in data set [1] (setting [5]) and in data set [1] (setting [6]) were 2.93 h and 2.8 h, respectively.

For `CSC1=C(C(=O)O)N2C(=O)[C@H]([C@@H](C)NC(=O)[C@H](CC(C)C)NC(=O)[C@H](C)N)[C@H]2[C@H]1C` [Procedure 39, (5S,6R)-6-{1′R-(L-Alanyl-L-leucyl)aminoethyl}-4R-methyl-3-methylthio-7-oxo-1-azabicyclo[3.2.0]hept-2-ene-2-carboxylic Acid], the half-life in data set [1] (setting [5]) is below 0.0833 h; in data set [1] (setting [6]), 46 h. The “PD50, E. coli” value in the data set with E. coli (IM) and in the data set on E. coli (PO) was 25.00 throughout. Besides, the Cmax in data set [2] (setting [7]) was found to be 2000 ng/mL.

As for `C[C@@H](N)[C@H]1C(=O)N2C(C(=O)O)=C(SCc3cccnc3)[C@H](C)[C@H]12` [Procedure 21, (5S,6R)-6-(1′R-Aminoethyl)-4R-methyl-3-[(pyridin-3-yl)methyl-thio]-7-oxo-1-azabicyclo[3,2,0]hept-2-ene-2-carboxylic Acid], the half-life in data set [1] (setting [5]) was 2.4 h; in data set [1] (setting [6]) it was 3 h; in data set [2] (20 mg/kg, IM/20) it was 0.2 h; in data set [2] (PO, 50 mg/kg), 0.383 h. Also, the “PD50, E. coli” value in the data set with E. coli (PO) is given as 8.10. This molecule also gave a U.R. in data set [2] (listed after the PO/50 lines, abbreviation not defined) of 5. The area under the curve (AUC) in data set [2] (blood, 20 mg/kg, IM/20) came out at 7000 ng·h/mL; in data set [2] (blood, PO, 50 mg/kg), 21000 ng·h/mL. Further, the Cmax stood at 18000 ng/mL in data set [2] (blood, 20 mg/kg, IM/20, read-out: Cmax, IM/20) and 25000 ng/mL in data set [2] (setting [7]).

On to `CSC1=C(C(=O)[O-])N2C(=O)[C@H]([C@@H](C)[N+](C)(C)C)[C@H]2[C@H]1C` [Procedure 36], for which the “M.I.C. Staph. serum” value in the data set with Staph. serum stood at 63.000.

Take `CSC1=C(C(=O)O)N2C(=O)[C@H]([C@H](C)NC(=O)CNC(=O)[C@@H](N)CC(C)C)[C@H]2[C@H]1C` [Procedure 61, (5S,6R) 6-(1′S-(L-Leucylglycyl)aminoethyl)-4R-methyl-3-methylthio-7-oxo-1-azabicyclo[3.2.0]hept-2-ene-2-carboxylic Acid]: the “M.I.C. Staph. serum” value in the data set with Staph. serum came out at 63.000.

For `C[C@@H](N)[C@H]1C(=O)N2C(C(=O)O)=C(SCCF)[C@H](C)[C@H]12` [Procedure 23], the “M.I.C. Staph. serum” value in the data set with Staph. serum worked out at 16.000.

Take `CSC1=C(C(=O)O)N2C(=O)[C@H]([C@@H](C)NC(=O)CNC(=O)[C@@H](N)CC(C)C)[C@H]2[C@H]1C` [Procedure 37]: in the data set on Staph. serum, the “M.I.C. Staph. serum” value amounted to 16.000.

As usually defined, the AUC is the area under the concentration-time curve, a measure of exposure.
